Data taken from publication PMC5538626, “Structural and functional analysis of the GABARAP interaction motif (GIM)” (EMBO Reports, 2017).
“Also recorded” adds a separate entry of the source.

Tests used:
[1] = system: 6xHis-tagged LC3B and 6xHis-tagged GABARAP; experiment: Peptide array, preference GABARAP versus LC3B (absorbance ratio); assay type: binding, human; details: absorbance GABARAP/LC3B or LC3B/GABARAP, cut-off 1.5-fold; mean of n = 3; Figs 1A, EV1B and C
Excerpt: A high number of autophagy receptors or adaptor structures have been reported, yet the basis for their selective interaction with individual members of the ATG8 family is not well understood. We speculated whether the LIR motif alone is able to confer selectivity towards a mATG8 subfamily and whether we could derive a subfamily consensus motif from analysis of known mATG8 interaction partners. To address this question, we screened an array of peptides (presented in Fig EV1A and described in Materials and Methods) with the LIR sequences of 30 known and validated autophagy receptors and adaptors (Table 1) against all six human mATG8s for binding (Figs 1A and EV1B and C). In brief, biotinylated peptides were immobilized on streptavidin‐coated 96‐well plates and incubated with His6‐tagged mATG8 proteins. After washing steps, peptide‐bound mATG8 was detected in an ELISA reader using anti‐His antibodies directly conjugated to HRP (horse radish peroxidase; Fig EV1A).
Dashed red line depicts 1.5‐fold change cut‐off.
Due to the wide range of affinities of various LIR sequences towards the LC3/GABARAP proteins, we have normalized our results by dividing values for LC3B interaction by the corresponding value for interaction with GABARAP (Fig 1A, purple bars) and vice versa (Fig 1A, blue bars) to highlight the potential subfamily selectivity of each LIR sequence tested. We classified ratios greater than 1.5‐fold as an indication of a preferential interaction towards that particular LC3 or GABARAP family member. […] Using this information, we generated a sequence plot (Fig 1B) to ascertain whether there were any common sequence features of the GABARAP‐specific interaction proteins. In addition to the 12 sequences identified in this experiment as preferential GABARAP subfamily interactors, we also included known GABARAP interactors that were not included in our screen (ALFY and KBTBD7). […] The previously identified PLEKHM1‐LIR 19 has a high degree of similarity to this sequence. […] However, it is unclear whether this is the case in vivo.
Biotinylated peptides (JPT, Germany) were immobilized on streptavidin‐coated 96‐well plates (#436014; Thermo Scientific) in 100 μl PBS containing 0.1% Tween‐20 (PT) and 1% BSA (PTB) overnight on a shaker at 8°C. After three washing steps with 200 μl PT, 100 μl of 1 μM HIS6‐tagged mATG fusion proteins isolated from E. coli in PTB was incubated with the immobilized peptides for 1 h at 8°C. After three washing steps with 200 μl PT, HIS6‐ATG8 bound to peptides was detected after 1‐h incubation with anti‐HIS‐HRP antibody (JP‐A00612; Genscript; 1:5,000 in 100 μl PTB) with the help of TMB substrate Reagent Set (BD OptEIA; 75 μl). The reaction (blue coloration) was stopped by addition of 60 μl 1 M H3PO4. Samples were analysed on a Synergy H1 ELISA reader from BioTek at 450 nm.

LC3B = details: p62 LIR with LC3B; no method, no reference given; cited from earlier work
Excerpt: Finally, we wanted to apply and subsequently verify our findings by targeted mutation of established autophagy players: p62, FUNDC1 and FIP200. Due to their impact, we specifically substituted existing residues at positions X1 and Γ of LIRs either singly or in combination to valine, thus driving the LIR sequences towards our GIM consensus sequence (Fig 1).

all LC3s = details: GST pull-down; cited from earlier work
Excerpt: Due to the wide range of affinities of various LIR sequences towards the LC3/GABARAP proteins, we have normalized our results by dividing values for LC3B interaction by the corresponding value for interaction with GABARAP (Fig 1A, purple bars) and vice versa (Fig 1A, blue bars) to highlight the potential subfamily selectivity of each LIR sequence tested. We classified ratios greater than 1.5‐fold as an indication of a preferential interaction towards that particular LC3 or GABARAP family member.

all six mATG8 proteins = experiment: Peptide array (ELISA), all six mATG8s; details: 450 nm, Fig 3E, n = 4
endogenous GABARAP [2] = experiment: Co-immunoprecipitation of 3xFlag-FIP200 with endogenous GABARAP, HEK293 cells; assay type: cell-based; details: HEK293, anti-Flag beads, Western blot; Fig 5B
Method: Blots were probed for the presence of endogenous GABARAP and LC3B proteins. • 3xFlag‐FIP200 WT, E703V, I705V, E703V/I705V and F702A/I705A were overexpressed in HEK293 cells and immunoprecipitated using anti‐Flag beads and subjected to SDS–PAGE and Western blotting. Blots were probed for the presence of endogenous GABARAP and LC3B proteins. • GFP‐FUNDC1 WT, E19V, L21V, E19V/L21V and Y18A/L21A were overexpressed in HEK293 cells and either treated with vehicle only (DMSO) or 20 μM CCCP for 2 h, lysed and GFP‐FUNDC1 immunoprecipitated using anti‐GFP beads (or anti‐RFP beads as control) and subjected to SDS–PAGE and Western blotting. Blots were probed for the presence of endogenous GABARAP and LC3B proteins.

endogenous GABARAP [3] = experiment: Co-immunoprecipitation of GFP-mCherry-p62/SQSTM1 with endogenous GABARAP, HEK293 cells; assay type: cell-based; details: HEK293, basal conditions, anti-RFP beads, Western blot; Fig 5A
endogenous LC3B = experiment: Co-immunoprecipitation of GFP-mCherry-p62/SQSTM1 with endogenous LC3B, HEK293 cells; assay type: cell-based; details: HEK293, basal conditions, anti-RFP beads, Western blot; Fig 5A
GFP-LC3/GABARAPs = experiment: Co-immunoprecipitation of endogenous proteins with GFP-mATG8s in HeLa cells; details: 4 h KU-0063794 (10 μM) + chloroquine (20 μM), Fig 2C

DDDWTHLSS [p62/SQSTM1, LIR peptide 335–343, peptide array]
preference GABARAP versus LC3B [1]: slight preference for GABARAP | Kd (LC3B): ~1500 nM

EDEWVNVQY [PLEKHM1]
preference GABARAP versus LC3B [1]: clear preference for binding to GABARAP and GABARAP‐L2 over LC3B and LC3C; also recorded: strong preference for GABARAP versus LC3 | interaction with LC3s (all LC3s): can interact with all LC3s | ranking of mATG8 binding (all six mATG8 proteins): shows the most potent interaction, followed by GABARAP‐L1, ‐L2, LC3C and LC3A, with LC3B as the weakest interactor

FVTV: 3xFlag-FIP200 E703V/I705V
interaction of FIP200 with endogenous GABARAP (endogenous GABARAP [2]): enhance the interaction between FIP200 (LIR sequence FDFETIPH) and GABARAP

L341V: GFP-mCherry-p62/SQSTM1 L341V
interaction of p62/SQSTM1 with endogenous GABARAP (endogenous GABARAP [3]): mild effect; also recorded: little effect on LC3/GABARAP‐specific interaction | interaction of p62/SQSTM1 with endogenous LC3B (endogenous LC3B): little effect on LC3/GABARAP‐specific interaction

endogenous p62/SQSTM1: endogenous p62/SQSTM1 protein in HeLa cells
co-precipitation of endogenous protein with GFP-mATG8s (GFP-LC3/GABARAPs): co‐precipitated with all LC3/GABARAP to a similar extent
